In patent publication US20090105266A1, “Organic compounds” (priority 2007, published 2009):

Molecular target: T1, mGluR5 (Homo sapiens, UniProt P41594)
T1 construct: expressed in transfected cells
Assay: inhibition of the glutamate (agonist) induced elevation of the inositol phosphate turnover
Format: cell-based
Details: inhibition of glutamate induced elevation of inositol phosphate turnover at 0.1 μM
Excerpt: This can be determined in vitro for example at recombinant human metabotropic glutamate receptors, especially PLC-coupled subtypes thereof such as mGluR5, using different procedures like, for example, measurement of the inhibition of the agonist induced elevation of intracellular Ca^2+ concentration in accordance with L. P. Daggett et al., Neuropharm. Vol. 34, pages 871-886 (1995), P. J. Flor et al., J. Neurochem. Vol. 67, pages 58-63 (1996) or by determination to what extent the agonist induced elevation of the inositol phosphate turnover is inhibited as described by T. Knoepfel et al., Eur. J. Pharmacol. Vol. 288, pages 389-392 (1994), L. P. Daggett et al., Neuropharm. Vol. 67, pages 58-63 (1996) and references cited therein. Isolation and expression of human mGluR subtypes are described in U.S. Pat. No. 5,521,297. Selected agents of the invention show IC50 values for the inhibition of the agonist (e.g. glutamate or quisqualate) induced elevation of intracellular Ca2+ concentration or the agonist (e.g. glutamate or quisqualate) induced inositol phosphate turnover, measured in recombinant cells expressing hmGluR^5a of about 0.1 nM to about 50 μM.
Activity of compounds of the present invention was examined by determination to what extent the agonist induced elevation of the inositol phosphate turnover is inhibited as described by T. Knoepfel et al., Eur. J. Pharmacol. Vol. 288, pages 389-392 (1994), L. P. Daggett et al., Neuropharm. Vol. 67, pages 58-63 (1996) and references cited therein.
The table below represents percentages of inhibition of the glutamate induced elevation of the inositol phosphate turnover at a concentration of 0.1 μM.

T1 sequence (P41594 21-1180 isoform P41594-2 limits assumed): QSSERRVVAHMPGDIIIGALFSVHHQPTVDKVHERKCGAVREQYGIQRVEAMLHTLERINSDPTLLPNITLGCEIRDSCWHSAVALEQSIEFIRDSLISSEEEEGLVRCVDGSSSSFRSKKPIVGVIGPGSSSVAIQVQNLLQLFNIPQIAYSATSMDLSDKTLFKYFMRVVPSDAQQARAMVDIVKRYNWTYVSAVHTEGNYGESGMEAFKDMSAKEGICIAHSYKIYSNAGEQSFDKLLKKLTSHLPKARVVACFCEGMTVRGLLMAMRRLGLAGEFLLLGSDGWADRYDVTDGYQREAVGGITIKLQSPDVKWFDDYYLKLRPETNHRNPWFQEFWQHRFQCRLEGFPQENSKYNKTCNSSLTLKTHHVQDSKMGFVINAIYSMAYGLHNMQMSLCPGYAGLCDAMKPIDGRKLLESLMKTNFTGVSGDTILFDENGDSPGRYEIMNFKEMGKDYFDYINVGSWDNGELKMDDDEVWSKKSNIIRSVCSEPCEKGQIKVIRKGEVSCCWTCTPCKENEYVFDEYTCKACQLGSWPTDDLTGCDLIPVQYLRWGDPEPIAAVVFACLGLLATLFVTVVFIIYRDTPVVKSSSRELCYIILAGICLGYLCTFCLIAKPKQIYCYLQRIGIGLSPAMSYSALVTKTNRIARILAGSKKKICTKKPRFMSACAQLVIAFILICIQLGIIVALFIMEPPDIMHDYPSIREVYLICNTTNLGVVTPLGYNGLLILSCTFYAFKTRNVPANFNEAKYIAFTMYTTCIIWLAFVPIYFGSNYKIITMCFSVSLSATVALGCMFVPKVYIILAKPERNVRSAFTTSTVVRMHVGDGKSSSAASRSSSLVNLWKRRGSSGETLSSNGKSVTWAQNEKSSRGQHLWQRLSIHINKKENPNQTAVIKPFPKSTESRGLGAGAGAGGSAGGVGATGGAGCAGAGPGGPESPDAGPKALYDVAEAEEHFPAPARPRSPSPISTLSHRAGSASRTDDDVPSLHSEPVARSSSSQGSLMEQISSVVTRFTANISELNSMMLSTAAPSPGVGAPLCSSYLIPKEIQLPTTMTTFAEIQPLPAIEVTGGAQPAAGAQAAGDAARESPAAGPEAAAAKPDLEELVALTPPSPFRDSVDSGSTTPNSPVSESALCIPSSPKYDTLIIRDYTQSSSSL

Row | inhibition at 0.1 µM [%] | Structure (SMILES) | mGluR5-activity in [%] inhibition at 0.1 μM [%]
1 | 85 | CCCn1c(-c2ccc(Nc3ccc(C)nc3)nc2)nc2ccc(F)cc21 [Example 105, [5-(6-Fluoro-1-propyl-1H-benzoimidazol-2-yl)-pyridin-2-yl]-(6-methyl-pyridin-3-yl)-amine] | –
2 | 99 | CCCn1c(-c2cnc(Nc3cnc(C)cn3)c(Cl)c2)nc2cccc(Cl)c21 [Example 62, [3-Chloro-5-(7-chloro-1-propyl-1H-benzoimidazol-2-yl)-pyridin-2-yl]-(5-methyl-pyrazin-2-yl)-amine] | –
3 | 84 | CCCn1c(-c2ccc(Nc3ccc(Cl)cc3)nc2)nc2ccc(F)cc21 [Example 104, (4-Chloro-phenyl)-[5-(6-fluoro-1-propyl-1H-benzoimidazol-2-yl)-pyridin-2-yl]-amine] | –
4 | 92 | CCCn1c(-c2cnc(Nc3ccc(C)cc3)c(Cl)c2)nc2ccc(F)cc21 [Example 65, [3-Chloro-5-(6-fluoro-1-propyl-1H-benzoimidazol-2-yl)-pyridin-2-yl]-p-tolyl-amine] | –
5 | 98 | Cc1ccc(Nc2ncc(-c3nc4ccccc4n3CC(C)C)cc2Cl)cn1 [Example 20, [3-Chloro-5-(1-isobutyl-1H-benzoimidazol-2-yl)-pyridin-2-yl]-(6-methyl-pyridin-3-yl)-amine] | –
6 | 85 | CCCn1c(-c2ccc(Nc3ccc(Cl)cc3)c(Cl)c2)nc2cccc(Cl)c21 [Example 96, [2-Chloro-4-(7-chloro-1-propyl-1H-benzoimidazol-2-yl)-phenyl]-(4-chloro-phenyl)-amine] | –
7 | 65 | CCCn1c(-c2cnc(Nc3ccc(C)nc3)c(Cl)c2)nc2cc(C(F)(F)F)ccc21 [Example 21, [3-Chloro-5-(1-propyl-5-trifluoromethyl-1H-benzoimidazol-2-yl)-pyridin-2-yl]-(6-methyl-pyridin-3-yl)-amine] | –
8 | 97 | CCCn1c(-c2ccc(Nc3ccc(C)cc3)nc2)nc2cccc(Cl)c21 [Example 103, [5-(7-Chloro-1-propyl-1H-benzoimidazol-2-yl)-pyridin-2-yl]-p-tolyl-amine] | –
9 | 101 | CCCn1c(-c2cnc(Nc3ccc(C)nc3)c(Cl)c2)nc2cccc(C)c21 [Example 24, [3-Chloro-5-(7-methyl-1-propyl-1H-benzoimidazol-2-yl)-pyridin-2-yl]-(6-methyl-pyridin-3-yl)-amine] | –
10 | 91 | CC(C)Cn1c(-c2ccc(Nc3ccc(Cl)cc3)nc2)nc2cccc(Cl)c21 [Example 109, [5-(7-Chloro-1-isobutyl-1H-benzoimidazol-2-yl)-pyridin-2-yl]-(4-chloro-phenyl)-amine] | –
11 | – | CCCn1c(-c2cnc(Nc3ccc(N)nc3)c(Cl)c2)nc2ccc(F)cc21 [Example 71b, N-5-[3-Chloro-5-(6-fluoro-1-propyl-1H-benzoimidazol-2-yl)-pyridin-2-yl]-pyridine-2,5-diamine] | 100
12 | – | CCCn1c(-c2cnc(Nc3ccc(N(C)C)nc3)c(Cl)c2)nc2ccccc21 [Example 69, N-5-[3-Chloro-5-(1-propyl-1H-benzoimidazol-2-yl)-pyridin-2-yl]-N2,N-2-dimethyl-pyridine-2,5-diamine] | 32
13 | 63 | CCCn1c(-c2cnc(Nc3cccc(F)c3)c(Cl)c2)nc2cccc(Cl)c21 [Example 55, [3-Chloro-5-(7-chloro-1-propyl-1H-benzoimidazol-2-yl)-pyridin-2-yl]-(3-fluoro-phenyl)-amine] | –
14 | 99 | CCCn1c(-c2cnc(Nc3ccc(Cl)cc3)c(Cl)c2)nc2cccc(Cl)c21 [Example 52, [3-Chloro-5-(7-chloro-1-propyl-1H-benzoimidazol-2-yl)-pyridin-2-yl]-(4-chloro-phenyl)-amine] | –
15 | 28 | CCCn1c(-c2cnc(Nc3cnc4ccccc4c3)c(Cl)c2)nc2cccc(Cl)c21 [Example 63, [3-Chloro-5-(7-chloro-1-propyl-1H-benzoimidazol-2-yl)-pyridin-2-yl]-quinolin-3-yl-amine] | –
16 | 63 | CCCn1c(-c2ccc(Nc3ccc(C)cc3)c(Cl)c2)nc2cccc(Cl)c21 [Example 95, [2-Chloro-4-(7-chloro-1-propyl-1H-benzoimidazol-2-yl)-phenyl]-p-tolyl-amine] | –
17 | 90 | Cc1ccc(Nc2ncc(-c3nc4cccc5c4n3CCC5)cc2Cl)cn1 [Example 31, [3-Chloro-5-(5,6-dihydro-4H-imidazo[4,5,1-ij]quinolin-2-yl)-pyridin-2-yl]-(6-methyl-pyridin-3-yl)-amine] | –

Row | inhibition at 0.1 µM [%] | Structure (SMILES) | mGluR5-activity in [%] inhibition at 0.1 μM [%]
18 | 34 | CCCn1c(-c2cnc(Nc3ccc(OC)cc3)nc2)nc2ccc(F)cc21 [Example 93, [5-(6-Fluoro-1-propyl-1H-benzoimidazol-2-yl)-pyrimidin-2-yl]-(4-methoxy-phenyl)-amine] | –
19 | 87 | CCCn1c(-c2cnc(Nc3ccc(C)nn3)c(Cl)c2)nc2cccc(Cl)c21 [Example 60, [3-Chloro-5-(7-chloro-1-propyl-1H-benzoimidazol-2-yl)-pyridin-2-yl]-(6-methyl-pyridazin-3-yl)-amine] | –
20 | 102 | CCCn1c(-c2cnc(Nc3ccc(OC)cc3)nc2)nc2cccc(Cl)c21 [Example 90, [5-(7-Chloro-1-propyl-1H-benzoimidazol-2-yl)-pyrimidin-2-yl]-(4-methoxy-phenyl)-amine] | –
21 | 51 | CCCn1c(-c2cnc(Nc3ccncc3)c(Cl)c2)nc2cccc(Cl)c21 [Example 59, [3-Chloro-5-(7-chloro-1-propyl-1H-benzoimidazol-2-yl)-pyridin-2-yl]-pyridin-4-yl-amine] | –
22 | 97 | CCCn1c(-c2cnc(Nc3ccc(C)nc3)c(Cl)c2)nc2cc(C)ccc21 [Example 22, [3-Chloro-5-(5-methyl-1-propyl-1H-benzoimidazol-2-yl)-pyridin-2-yl]-(6-methyl-pyridin-3-yl)-amine] | –
23 | 97 | CCCn1c(-c2ccc(Nc3ccc(C)nc3)c(Cl)c2)nc2ccccc21 [Example 94, [2-Chloro-4-(1-propyl-1H-benzoimidazol-2-yl)-phenyl]-(6-methyl-pyridin-3-yl)-amine] | –
24 | 97 | CCCn1c(-c2cnc(Nc3ccc(F)cc3)c(Cl)c2)nc2cccc(Cl)c21 [Example 54, [3-Chloro-5-(7-chloro-1-propyl-1H-benzoimidazol-2-yl)-pyridin-2-yl]-(4-fluoro-phenyl)-amine] | –
25 | – | CCCn1c(-c2cnc(Nc3ccc(N(C)C)nc3)c(Cl)c2)nc2cccc(Cl)c21 [Example 70, N-5-[3-Chloro-5-(7-chloro-1-propyl-1H-benzoimidazol-2-yl)-pyridin-2-yl]-N2,N-2-dimethyl-pyridine-2,5-diamine] | 90
26 | – | CCCn1c(-c2cnc(Nc3ccc(N)nc3)c(Cl)c2)nc2cccc(Cl)c21 [Example 75e, N-5-[3-Chloro-5-(7-chloro-1-propyl-1H-benzoimidazol-2-yl)-pyridin-2-yl]-pyridine-2,5-diamine] | 100
27 | 96 | CCCn1c(-c2ccc(Nc3ccc(Cl)cc3)cc2)nc2cccc(Cl)c21 [Example 81, (4-Chloro-phenyl)-[4-(7-chloro-1-propyl-1H-benzoimidazol-2-yl)-phenyl]-amine] | –
28 | 97 | Cc1ccc(Nc2ccc(-c3nc4cccc(Cl)c4n3CC(C)C)cn2)cn1 [Example 111, [5-(7-Chloro-1-isobutyl-1H-benzoimidazol-2-yl)-pyridin-2-yl]-(6-methyl-pyridin-3-yl)-amine] | –
29 | 99 | CCCn1c(-c2cnc(Nc3ccc(C)nc3)c(Cl)c2)nc2cc(F)c(F)cc21 [Example 30, [3-Chloro-5-(5,6-difluoro-1-propyl-1H-benzoimidazol-2-yl)-pyridin-2-yl]-(6-methyl-pyridin-3-yl)-amine] | –
30 | 90 | CCCn1c(-c2ccc(Nc3ccc(C)nc3)nc2)nc2ccccc21 [Example 102, (6-Methyl-pyridin-3-yl)-[5-(1-propyl-1H-benzoimidazol-2-yl)-pyridin-2-yl]-amine] | –
31 | 17 | CCCn1c(-c2cnc(Nc3ccc4ncccc4c3)c(Cl)c2)nc2cccc(Cl)c21 [Example 64, [3-Chloro-5-(7-chloro-1-propyl-1H-benzoimidazol-2-yl)-pyridin-2-yl]-quinolin-6-yl-amine] | –
32 | 57 | CCCCCn1c(-c2cnc(Nc3ccc(C)nc3)c(Cl)c2)nc2ccccc21 [Example 19, [3-Chloro-5-(1-pentyl-1H-benzoimidazol-2-yl)-pyridin-2-yl]-(6-methyl-pyridin-3-yl)-amine] | –
33 | 98 | CCCn1c(-c2ccc(Nc3ccc(OC)cc3)c(Cl)c2)nc2cccc(Cl)c21 [Example 97, [2-Chloro-4-(7-chloro-1-propyl-1H-benzoimidazol-2-yl)-phenyl]-(4-methoxy-phenyl)-amine] | –
34 | 100 | CCCn1c(-c2cnc(Nc3ccc(C(=O)OC)nc3)c(Cl)c2)nc2cccc(Cl)c21 [Example 75d, 5-[3-Chloro-5-(7-chloro-1-propyl-1H-benzoimidazol-2-yl)-pyridin-2-ylamino]-pyridine-2-carboxylic acid methyl ester] | –
